In ChEMBL document CHEMBL1156243:
Calls of active or inactive are those of the source. Unless noted, no cut-off for these calls is given here.

Experiments:
[1] = Binding affinity to amyloid beta (1 to 42) fibrils by change in fluorescence at 100 uM after 10 mins
[2] = Binding affinity to amyloid beta (1 to 42) oligomers by change in fluorescence at 100 uM after 10 mins
[3] = Binding affinity to amyloid beta (1 to 42) fibrils by fluorescence quenching after 30 mins
[4] = Binding affinity to amyloid beta (1 to 42) oligomers by fluorescence quenching after 30 mins
[5] = Inhibition of amyloid beta (1 to 42) aggregation […] after 48 hrs by fluorescence imaging
[6] = Binding affinity to amyloid beta (1 to 42) fibrils by change in fluorescence at 100 uM after 2 mins
[7] = Binding affinity to amyloid beta (1 to 42) oligomers by change in fluorescence at 100 uM after 2 mins

c1ccc2[nH]ccc2c1
Activity [1]: Active
Activity [2]: Active
Activity [3]: inactive
Activity [4]: Active
inhibition [5]: inactive

O=S(=O)(O)c1cccc2c(-c3ccc(Nc4ccccc4)c4c(S(=O)(=O)O)cccc34)ccc(Nc3ccccc3)c12
Activity [6]: Active
Activity [7]: Active
